Results on 1 compound are retold here after patent US12433864B2, “5,6-diHETE lactone for treatment of microvascular dysfunction” (MIGAL GALILEE RESEARCH INSTITUTE LTD., priority 2019, dated 2025).

The subject of one test is rat mesenteric arteries. Kind of test: Relaxation of rat mesenteric arteries from NT and 5/6Nx rats (wire myograph). The conditions noted are these: for % relaxation (relative to papaverine): 10^−6M, n=11.
Test [1] deals with T1, KCa3.1 (IK) calcium-activated potassium channel (human KCNN4 gene) expressed in CHO cells (Homo sapiens, UniProt O15554).
T1 construct: expressed in transfected cells
Kind of test: Thallium flux assay, agonist effect on IK channel. It counts as cell-based. The conditions noted are these: for Normalized % Activation: IK. The procedure:
Potassium channels genes were expressed in HEK293 or CHO cells (see Table 1). SspI or PvuI enzymes were used to linearize pcDNA3.1 plasmid (Thermo Fisher). The plasmid was stably transfected by Lonza Nucleofector. The transfection efficiency was >80% as validated by expression (western blot) and activation (patch clamp and membrane potential detection) of the channels.
Functional activity of voltage-gated potassium channels was conducted using a potassium dye (Thallium flux assay, Molecular Devices) using a Fluorescence Imaging Plate Reader (FLIPRTETRA™) instrument, according to the manufacturer's instructions. Cells were plated in 384-well black wall, flat clear bottom microtiter plates (BD Biocoat Poly-D Lysine Multiwell Cell Culture Plate) at 15,000 to 30,000 cells per well. Cells were incubated at 37° C. overnight or until cells reach sufficient density in the wells (near confluent monolayer) to use in fluorescence assays. A typical sequence is to record a baseline during the pre-incubation period (first addition of test article before stimulation), followed by activation in the stimulus buffer. For each addition, the first 60 seconds of data are acquired at the maximum rate (1 sample/second) and for the remaining 9-19 minutes (depending on the recording time of each addition); data are sampled every 5 seconds.
Accordingly, the objective of this study was to evaluate the agonist effects in vitro of the 5,6-diHETE lactone on two cloned human channels stably expressed in HEK-293 or CHO cells. The assay was performed with a thallium flux assay (FLIPR® Potassium Assay, Molecular Devices) according to the manufacturer's instructions. Briefly, cells were plated in 384-well black wall, flat clear bottom microtiter plates (BD Biocoat Poly-D-Lysine Multiwell Cell Culture Plate) at 15,000 to 30,000 cells per well. Cells were incubated at 37° C. overnight or until cells reach sufficient density in the wells (near confluent monolayer) to use in fluorescence assays. Dye-loading: Growth medium was removed and replaced with dye-loading buffer for 60 minutes at room temperature (protected from light). Agonist Effect: 5 repetitions of (5 μL) test, and vehicle or control solutions (assay buffer=0.3% DMSO) in K^+-free buffer with 5 mM Tl^+ was added to each well for ˜5 minutes. The test was 5,6-diHETE lactone (at eight concentrations: 0.05, 0.15, 0.3, 0.65, 1.25, 2.5, 5, and 10 μM, n=4). The agonist effects of the test article on the potassium channels was evaluated during this period by using a Fluorescence Imaging Plate Reader (FLIPRTETRA™) instrument.
To calculate the effect, the signal elicited in the presence of a known agonist, (1 μM A-23187 for SK3 and 10 μM NS309 for IK) with 5 mM thallium was set to 100% activation and the signal in the presence of the vehicle control (assay buffer+0.3% DMSO) was set to 0% activation. EC50 was calculated using GraphPad prism 5 software using nonlinear regression fit formula assuming a simple binding model.

Test [2] deals with Sprague-Dawley 5/6Nx rats. Kind of test: Direct blood pressure measurement in 5/6Nx rats after acute injection. It is filed as in vivo, rat. The conditions noted are these: 0.3 mg/kg i.v. The procedure:
Direct blood pressure measurements—For direct blood pressure (BP) evaluation, Sprague-Dawley 5/6Nx rats were deeply anesthetized by an injection of 87 mg/kg ketamine and 13 mg/kg xylazine (intramuscular) mixture. Next, the rats were instrumented with a venous line and an arterial line. Specifically, using 26G i.v. cannula (BD Neoflon, Helsinborg, Sweden) we punctured one of the tail veins, and installed the cannula. Next, 1 ml of saline heparin (500 IU/ml) mixture was administered to avoid blood clotting. Concomitantly, we installed the arterial line, after a neck incision we bluntly exposed the right carotid and ligated it distally. Then the artery was clamped proximally and incised between the ligation and the clamp. A 100 PE tube was advanced into the artery and tightened in it by second ligature aimed to avoid blood leakage, and then we removed the arterial clamp. The external tube was attached to a Luer stopcock valve, through which saline could be injected, blood withdrawn and to be connected to a pressure transducer.
Upon connecting and stabilization, signals were continuously sampled at a sampling rate of 200 samples/sec by the MPVS-300 system, recorded.
Basal BP was recorded for 10 min, after which time 0.5 ml 5,6-diHETE lactone (0.3 mg/kg and 3 mg/kg) dissolved in saline+DMSO (9:1) were injected through the venous line, and BP was recorded for additional 10 min after injection. For control, two distinct, known BP lowering agents were used consecutively, labetalol (10 mg/kg) a known a and p adrenergic inhibitor, and amlodipine (1.5 mg/kg) a calcium channel blocker (each by 0.5 ml venous injection). BP was recorded for additional 10 min after each injection. Specifically, after lactone effect recording labetalol was administered and 10 min later the amlodipine. We terminated the experiment by venous administration of 1M KCl overdose, until the heart stopped.

On to `CCC=CCC=CCC=CCC=CCC(O)C1CCCC(=O)O1` (racemic) [5,6-diHETE lactone, 5,6 dihydroxyeicosatetraenoic acid (5,6-diHETE) lactone], for which the entries for the “% relaxation (relative to papaverine)” value in the test on rat mesenteric arteries (5/6Nx vessels) and in the test with rat mesenteric arteries (NT vessels) were 73.3±20.2% and 58.6±25.0%, respectively. The “effect of pre-treatment with TRAM-34 and apamin on induced relaxation” value in the test with rat mesenteric arteries (lactone 1 μmol/L, TRAM-34 1 μmol/L and apamin 1 μmol/L, p<0.01) is reported as “significantly attenuated”. Besides, the EC50 in test [1] (CHO cells, 100% = 10 μM NS309, read-out: EC50, IK channel activation) was determined as 2.65 µM. Besides, the “Normalized % Activation” value in test [1] (0.05 μM) is −0.13%; in test [1] (0.15 μM), −0.03%; in test [1] (0.3 μM) it was 0.2%; in test [1] (0.65 μM), 1.03%; in test [1] (1.25 μM), 6.06%; in test [1] (2.5 μM), 44.2%. The “Normalized % Activation” value was found to be 90% in test [1] (5 μM) and 98.19% in test [1] (10 μM). Moreover, the “percent reduction of SBP from baseline” value in test [2] is recorded as “about 20%”. For the same compound, the “systolic blood pressure (SBP) upon injection” value in test [2] (baseline 188.0±5.5 mmHg, 3 rats) was found to be 162.5±12.3 mmHg.

By EC50 is commonly meant the concentration giving half of the maximal effect.
